The numbers were not newly measured in US4743707A, “Process for purifying allyl alcohol” (priority 1986, dated 1988), which cites them from elsewhere.

For the data set the following is noted: 20° C.; Ullmanns Encyklopadie.

Regarding `O=P([O-])([O-])OP(=O)([O-])OP(=O)([O-])[O-].[K+].[K+].[K+].[K+].[K+]` [Potassium tripolyphosphate, potassium tripolyphosphate], the water solubility result is recorded as “about 67%”.
